Values joined by “and” are separate entries in the source; they are usually repeats but may differ in a detail not shown here. Equal entries are not always repeated.
Key:
[1] = biological target: GEMS with the dual-drug-controlled (A-1155463, venetoclax) switch (Bcl2 and BclXL–LD3) in HEK293T cells (Homo sapiens, UniProt P10415); assay: GEMS SEAP reporter assay, dual-drug-controlled (A-1155463, venetoclax) switch; format: cell-based; details: for SEAP (U/L): Figure 2c, ON-phase
Source text: In the first step, we sought to construct a dual-drug-controlled switch to test whether the ON and OFF switching processes can be combined in our receptor architecture. We used Bcl2 and BclXL as the orthogonal drug receptors, which interact with the LD3 protein and respond to their own specific inhibitors. In such a setting, the dual-drug-controlled switch will turn ON in response to one drug and OFF in response to the other, thus mimicking bandpass filtering behavior (Supplementary Fig. 1d). […] To test the switch behavior, we employed the generalizable extracellular molecule sensor (GEMS) platform, which senses extracellular molecules and thus regulates cell surface signaling pathways (Fig. 2a). This receptor platform is based on a mutated EpoR extracellular and transmembrane domain fused to an IL-6RB intracellular domain. Dimerization of EpoR extracellular domains is controlled by N-terminally fused inducible dimerization domains, which drive IL-6RB activation and STAT3 signaling. The Bcl2 and BclXL–LD3 complexes were fused to the extracellular EpoR domains. […] The dimerization of Bcl2 and LD3 causes EpoR extracellular domain dimerization and triggers JAK/STAT3 signaling. Active STAT3 drives the expression of a reporter protein (secreted alkaline phosphatase (SEAP)) controlled by a STAT3-dependent promoter.
(§1) HEK293T cells were seeded in a 96-well plate 24 h before transfection. The transfection mix in each well consisted of 3 ng of constitutive human CMV promoter driven mammalian STAT3 expression vector (PhCMV-STAT3-pA), 30 ng of STAT3-induced reporter expression (OStat3-PhCMVmin-SEAP-pA) and 50 ng of expression vectors for each GEMS receptor chain (PSV40-IgK-(drughigh receptor)-EpoRm-IL-6RBm-pA and PSV40-IgK-(druglow receptor-GGGGSX3-LD3)-EpoRm-IL-6RBm-pA). For the specific drughigh receptor and druglow receptor used in the different cellular assays, they are indicated as wild type or with mutations. Then, plasmid DNA was mixed with 50 μl opti-MEM (Thermo Fisher) and 600 ng of polyethyleneimine (Polysciences, catalog no. 24765-1). For drug treatment experiments, drugs were added 12 h post-transfection and incubated with cells for 24 h before the SEAP reporter detection assay.
(§2) SEAP activity (U l^−1) in cell culture supernatants was quantified by kinetic measurements at 405 nm (1 minute per measurement for 30 cycles) of absorbance increase due to phosphatase-mediated hydrolysis of para-nitrophenyl phosphate (pNPP).
Binding affinities of SPR drug competition assays were calculated using three-parameter nonlinear regression in GraphPad Prism (v.8.3.0). Representative data of cell assays are presented as individual values and mean values (bars). n = 3 refers to biological replicates. All IC50 or EC50 values of cell assays reported were calculated using four-parameter nonlinear regression ± s.d. Bandpass features of cutoff concentrations and Bandwidth90% were estimated based on the curve fitted using bell-shaped curve nonlinear regression in GraphPad Prism (v.8.3.0).

[2] = test system: Bcl2; details: cited from earlier work
[3] = biological target: BclXL–LD3 interaction (Homo sapiens, UniProt Q07817); assay: SPR drug competition assay, BclXL–LD3; format: binding; details: for Normalization of Response units / Response units: BclXL, Supp Fig 2a
Sequence of BclXL–LD3 interaction (Q07817 1-209 limits assumed): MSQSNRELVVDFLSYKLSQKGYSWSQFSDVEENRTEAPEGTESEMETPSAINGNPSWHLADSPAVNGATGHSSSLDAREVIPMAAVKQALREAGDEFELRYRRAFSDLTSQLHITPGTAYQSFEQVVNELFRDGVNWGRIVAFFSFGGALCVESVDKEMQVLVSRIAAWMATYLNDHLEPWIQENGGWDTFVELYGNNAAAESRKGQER

[4] = biological target: GEMS with the dual-drug-controlled (venetoclax, A-1155463) switch (BclXL and Bcl2–LD3) in HEK293T cells (Homo sapiens, UniProt P10415); assay: GEMS SEAP reporter assay, dual-drug-controlled (venetoclax, A-1155463) switch; format: cell-based; details: for SEAP (U/L): Figure 2f, OFF-phase
Sequence of GEMS with the dual-drug-controlled (venetoclax, A-1155463) switch (BclXL and Bcl2–LD3) in HEK293T cells (P10415 whole entry): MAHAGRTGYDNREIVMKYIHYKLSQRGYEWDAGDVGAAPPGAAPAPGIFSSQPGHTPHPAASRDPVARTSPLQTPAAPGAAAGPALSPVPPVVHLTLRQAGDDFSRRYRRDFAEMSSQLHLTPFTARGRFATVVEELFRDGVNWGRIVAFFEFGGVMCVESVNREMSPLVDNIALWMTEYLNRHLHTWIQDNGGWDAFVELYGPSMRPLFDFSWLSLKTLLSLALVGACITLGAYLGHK
Sequence of GEMS with the dual-drug-controlled (venetoclax, A-1155463) switch (BclXL and Bcl2–LD3) in HEK293T cells (Q07817 whole entry, further chain): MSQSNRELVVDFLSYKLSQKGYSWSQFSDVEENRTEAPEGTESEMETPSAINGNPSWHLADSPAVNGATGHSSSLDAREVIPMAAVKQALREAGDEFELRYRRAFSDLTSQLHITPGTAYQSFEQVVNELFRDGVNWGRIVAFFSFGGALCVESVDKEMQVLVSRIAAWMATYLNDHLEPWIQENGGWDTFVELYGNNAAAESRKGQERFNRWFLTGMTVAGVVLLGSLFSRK
Protocol: as §1, §2
(§3) Binding affinities of SPR drug competition assays were calculated using three-parameter nonlinear regression in GraphPad Prism (v.8.3.0). Representative data of cell assays are presented as individual values and mean values (bars). n = 3 refers to biological replicates. All IC50 or EC50 values of cell assays reported were calculated using four-parameter nonlinear regression ± s.d. Bandpass features of cutoff concentrations and Bandwidth90% were estimated based on the curve fitted using bell-shaped curve nonlinear regression in GraphPad Prism (v.8.3.0). […]

[5] = biological target: Bcl2–LD3 interaction (Homo sapiens, UniProt P10415); assay: SPR drug competition assay, Bcl2–LD3; format: binding; details: for Normalization of Response units / Response units: Bcl2, Supp Fig 2a
Sequence of Bcl2–LD3 interaction (P10415 1-207 limits assumed): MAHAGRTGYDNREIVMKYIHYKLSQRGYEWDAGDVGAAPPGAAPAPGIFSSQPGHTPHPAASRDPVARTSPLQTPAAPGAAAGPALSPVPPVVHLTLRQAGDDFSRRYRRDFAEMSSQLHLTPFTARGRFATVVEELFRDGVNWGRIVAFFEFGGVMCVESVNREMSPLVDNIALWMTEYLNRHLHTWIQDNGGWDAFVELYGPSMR
Protocol: Drug IC50 values for disrupting heterodimers were measured on a Biacore 8K device. A 5 µM portion of analyte was mixed with 10 µM of BclXL or Bcl2 inhibitors according to the analyte. The mixtures of analyte and drug were injected onto the LD3 immobilized channel.
as §3
This assay is designed to test if the drug of interest can specifically disrupt the
interaction between LD3 and BclXL/Bcl2. The drug-receptors (Bcl2, BclXL) are immobilized on the
different channels of the sensor chip, then the binding sites are saturated with LD3. […]

[6] = Independent repeat, A-1155463 1 nM
[7] = Independent repeat, A-1155463 10 nM
[8] = Independent repeat, A-1155463 31.6 nM
[9] = Independent repeat, A-1155463 100 nM
[10] = Representative, A-1155463 10 nM
[11] = Representative, A-1155463 31.6 nM
[12] = Representative, A-1155463 100 nM
[13] = Representative, A-1155463 316 nM

Sequence of GEMS with the dual-drug-controlled (A-1155463, venetoclax) switch (Bcl2 and BclXL–LD3) in HEK293T cells (Q07817 whole entry): as the sequence (Q07817 whole entry, further chain) above
Sequence of GEMS with the dual-drug-controlled (A-1155463, venetoclax) switch (Bcl2 and BclXL–LD3) in HEK293T cells (P10415 whole entry): as the sequence (P10415 whole entry) above

SMILES: CN(C)CC#Cc1ccc(OCCCc2sc(N3CCc4cccc(C(=O)Nc5nc6ccccc6s5)c4C3)nc2C(=O)O)c(F)c1 [A-1155463]
- EC50 ([1]; A-1155463 dose response, SEAP, read-out: EC50 of the ON phase): 23 nM
- SEAP (U/L) [1, 6]: 42.7182 U/L and 41.8919 U/L and 38.4512 U/L
- SEAP (U/L) [1, 7]: 156.072 U/L and 146.503 U/L and 188.411 U/L
- SEAP (U/L) [1, 8]: 331.126 U/L and 300.096 U/L and 322.732 U/L
- SEAP (U/L) [1, 9]: 407.571 U/L and 388.702 U/L and 469.003 U/L
- SEAP (U/L) ([1]; Representative, A-1155463 1 nM): 15.8426 U/L and 13.5232 U/L and 13.6294 U/L
- SEAP (U/L) [1, 10]: 26.67 U/L and 26.9995 U/L and 28.8916 U/L
- SEAP (U/L) [1, 11]: 53.4598 U/L and 53.7585 U/L and 50.2237 U/L
- SEAP (U/L) [1, 12]: 77.0863 U/L and 99.712 U/L and 86.8586 U/L
- SEAP (U/L) [1, 13]: 74.2135 U/L
- binding to Bcl2 weaker than to BclXL [2]: more than 7,000 fold
- Normalization of Response units ([3]; A11 0.01): 102.002
- Response units ([3]; A11 0.01): 136.071
- Normalization of Response units ([3]; A11 0.1): 97.9313
- Response units ([3]; A11 0.1): 130.64
- Normalization of Response units ([3]; A11 1): 94.098
- Response units ([3]; A11 1): 125.527
- Normalization of Response units ([3]; A11 10): 84.7556
- Response units ([3]; A11 10): 113.064
- Normalization of Response units ([3]; A11 100): 61.7671
- Response units ([3]; A11 100): 82.3973
- Normalization of Response units ([3]; A11 1000): 27.7573
- Response units ([3]; A11 1000): 37.0282
- Normalization of Response units ([3]; A11 10000): 14.6141
- Response units ([3]; A11 10000): 19.4952
- IC50 ([3]; prevents BclXL from binding to LD3): 106 nM
- IC50 ([4]; A-1155463-controlled OFF phase): 103 nM
- decrease in the OFF phase ([4]; Fig 2e): close to tenfold
- SEAP (U/L) ([4]; Independent repeat2, A-1155463 0.001 nM): 136.822 U/L and 169.801 U/L and 176.875 U/L
- SEAP (U/L) ([4]; Independent repeat2, A-1155463 0.1 nM): 103.12 U/L and 204.542 U/L and 189.519 U/L
- SEAP (U/L) ([4]; Independent repeat2, A-1155463 1 nM): 92.9798 U/L and 167.805 U/L and 150.91 U/L
- SEAP (U/L) ([4]; Independent repeat2, A-1155463 10 nM): 77.7029 U/L and 130.847 U/L and 121.179 U/L
- SEAP (U/L) ([4]; Independent repeat2, A-1155463 31.6 nM): 58.2163 U/L and 85.6507 U/L and 74.3645 U/L
- SEAP (U/L) ([4]; Independent repeat2, A-1155463 100 nM): 37.6382 U/L and 39.3259 U/L and 34.7513 U/L
- SEAP (U/L) ([4]; Independent repeat2, A-1155463 316 nM): 10.089 U/L and 12.1866 U/L and 9.268 U/L
- SEAP (U/L) ([4]; Independent repeat2, A-1155463 1000 nM): 8.119 U/L and 8.577 U/L and 7.014 U/L
- SEAP (U/L) ([4]; Independent repeat, A-1155463 0.001 nM): 544.306 U/L and 608.147 U/L and 640.878 U/L
- SEAP (U/L) ([4]; Independent repeat, A-1155463 0.01 nM): 596.894 U/L and 605.557 U/L and 647.084 U/L
- SEAP (U/L) ([4]; Independent repeat, A-1155463 0.1 nM): 460.121 U/L and 563.478 U/L and 550.17 U/L
- SEAP (U/L) [4, 6]: 534.525 U/L and 587.537 U/L and 614.263 U/L
- SEAP (U/L) [4, 7]: 528.461 U/L and 563.236 U/L and 515.428 U/L
- SEAP (U/L) [4, 8]: 441.716 U/L and 544.633 U/L and 570.455 U/L
- SEAP (U/L) [4, 9]: 308.86 U/L and 496.735 U/L and 439.283 U/L
- SEAP (U/L) ([4]; Independent repeat, A-1155463 316 nM): 344.351 U/L and 390.049 U/L and 370.506 U/L
- SEAP (U/L) ([4]; Representative, A-1155463 0.001 nM): 452.056 U/L and 640.781 U/L and 545.972 U/L
- SEAP (U/L) ([4]; Representative, A-1155463 0.01 nM): 482.724 U/L and 651.317 U/L and 591.102 U/L
- SEAP (U/L) ([4]; Representative, A-1155463 0.1 nM): 443.461 U/L and 562.309 U/L and 475.562 U/L
- SEAP (U/L) ([4]; Representative, A-1155463 1 nM): 415.408 U/L and 516.033 U/L and 492.483 U/L
- SEAP (U/L) [4, 10]: 401.724 U/L and 506.387 U/L and 481.044 U/L
- SEAP (U/L) [4, 11]: 379.199 U/L and 421.639 U/L and 391.615 U/L
- SEAP (U/L) [4, 12]: 206.108 U/L and 261.394 U/L and 267.779 U/L
- SEAP (U/L) [4, 13]: 72.1001 U/L and 78.6193 U/L and 80.8054 U/L
- SEAP (U/L) ([4]; Representative, A-1155463 1000 nM): 15.1572 U/L and 16.9337 U/L and 16.4073 U/L
- Normalization of Response units ([5]; A11 0.01): 92.1843
- Response units ([5]; A11 0.01): 21.2577
- Normalization of Response units ([5]; A11 0.1): 80.8291
- Response units ([5]; A11 0.1): 18.6392
- Normalization of Response units ([5]; A11 1): 73.8912
- Response units ([5]; A11 1): 17.0393
- Normalization of Response units ([5]; A11 10): 65.6037
- Response units ([5]; A11 10): 15.1282
- Normalization of Response units ([5]; A11 100): 63.1974
- Response units ([5]; A11 100): 14.5733
- Normalization of Response units ([5]; A11 1000): 71.7979
- Response units ([5]; A11 1000): 16.5566
- Normalization of Response units ([5]; A11 10000): 76.7051
- Response units ([5]; A11 10000): 17.6882
- effect on the Bcl2–LD3 interaction ([5]; SPR drug competition): does not affect
